# In the supplement of paper PMC10733146:
# Tests used:
# Test in all cases: viability relative to DMSO control (fraction); higher = less drug effect (more viable cells)
# Conditions in all cases: 48 h
# [1] = test system: primary AML patient cells (S055)
# Method in brief: (§1)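 Compounds were pre-plated at five concentrations, one well each, in 384-well plates, and primary mononuclear tumour cells were plated on them at 4 × 10^4 cells per well. The cells, fresh or cryopreserved, had been Ficoll-isolated from blood or bone marrow or taken from processed lymph node. After 48 h at 37 °C and 5% CO2 in RPMI-1640 with penicillin/streptomycin, L-glutamine and human serum, viability was read as CellTiter-Glo luminescence relative to the median of 16 inner DMSO wells.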
# [2] = test system: primary AML patient cells (S037)
# Method in brief: as §1
# [3] = test system: primary AML patient cells (S089)
# Method in brief: as §1
# [4] = test system: primary CLL patient cells (S031)
# Method in brief: as §1
# [5] = test system: primary T-PLL patient cells (S008)
# Method in brief: as §1
# [6] = test system: primary MCL patient cells (S053)
# Method in brief: as §1
# [7] = test system: primary DLBCL patient cells (S082)
# Method in brief: as §1
# [8] = test system: primary FL patient cells (S087)
# Method in brief: as §1
# [9] = test system: primary AML patient cells (S056)
# Method in brief: as §1
# [10] = test system: primary FL patient cells (S022)
# Method in brief: as §1
# [11] = test system: primary AML patient cells (S072)
# Method in brief: as §1
# [12] = test system: primary MCL patient cells (S068)
# Method in brief: as §1
# [13] = test system: primary AML patient cells (S091)
# Method in brief: as §1
# [14] = test system: primary AML patient cells (S079)
# Method in brief: as §1
# [15] = test system: primary AML patient cells (S006)
# Method in brief: as §1
# [16] = test system: primary MCL patient cells (S041)
# Method in brief: as §1
# [17] = test system: primary AML patient cells (S012)
# Method in brief: as §1
# [18] = test system: primary ALL patient cells (S048)
# Method in brief: as §1
# [19] = test system: primary AML patient cells (S009)
# Method in brief: as §1
# [20] = test system: primary MCL patient cells (S063)
# Method in brief: as §1
smiles,measurement,setting,value
O=C(c1cc(Cc2n[nH]c(=O)c3ccccc23)ccc1F)N1CCN(C(=O)C2CC2)CC1 [Olaparib],viability,[1]; 0.024 µM,0.937
same,viability,[1]; 0.12 µM,0.899
same,viability,[1]; 0.6 µM,0.91
same,viability,[1]; 3 µM,0.965
same,viability,[1]; 15 µM,0.919
same,viability,[2]; 0.024 µM,0.853
same,viability,[2]; 0.12 µM,0.895
same,viability,[2]; 0.6 µM,0.915
same,viability,[2]; 3 µM,0.859
same,viability,[2]; 15 µM,0.776
same,viability,[3]; 0.024 µM,0.959
same,viability,[3]; 0.12 µM,0.82
same,viability,[3]; 0.6 µM,0.883
same,viability,[3]; 3 µM,0.63
same,viability,[3]; 15 µM,0.814
same,viability,[4]; 0.024 µM,0.814
same,viability,[4]; 0.12 µM,0.89
same,viability,[4]; 0.6 µM,0.913
same,viability,[4]; 3 µM,0.829
same,viability,[4]; 15 µM,0.854
same,viability,[5]; 0.024 µM,0.945
same,viability,[5]; 0.12 µM,0.962
same,viability,[5]; 0.6 µM,0.957
same,viability,[5]; 3 µM,0.978
same,viability,[5]; 15 µM,0.94
same,viability,[6]; 0.024 µM,0.801
same,viability,[6]; 0.12 µM,0.863
same,viability,[6]; 0.6 µM,0.834
same,viability,[6]; 3 µM,0.685
same,viability,[6]; 15 µM,0.643
same,viability,[7]; 0.024 µM,0.835
same,viability,[7]; 0.12 µM,0.887
same,viability,[7]; 0.6 µM,0.878
same,viability,[7]; 3 µM,0.817
same,viability,[7]; 15 µM,0.718
same,viability,[8]; 0.024 µM,0.882
same,viability,[8]; 0.12 µM,0.916
same,viability,[8]; 0.6 µM,0.911
same,viability,[8]; 3 µM,0.912
same,viability,[8]; 15 µM,0.845
same,viability,[9]; 0.024 µM,1.05
same,viability,[9]; 0.12 µM,0.922
same,viability,[9]; 0.6 µM,1.05
same,viability,[9]; 3 µM,1.15
same,viability,[9]; 15 µM,1.17
same,viability,[10]; 0.024 µM,0.828
same,viability,[10]; 0.12 µM,1.07
same,viability,[10]; 0.6 µM,0.937
same,viability,[10]; 3 µM,0.866
same,viability,[10]; 15 µM,0.875
same,viability,[11]; 0.024 µM,0.829
same,viability,[11]; 0.12 µM,0.891
same,viability,[11]; 0.6 µM,0.914
same,viability,[11]; 3 µM,0.885
same,viability,[11]; 15 µM,0.852
same,viability,[12]; 0.024 µM,0.896
same,viability,[12]; 0.12 µM,0.838
same,viability,[12]; 0.6 µM,0.714
same,viability,[12]; 3 µM,0.78
same,viability,[12]; 15 µM,0.585
same,viability,[13]; 0.024 µM,0.857
same,viability,[13]; 0.12 µM,0.796
same,viability,[13]; 0.6 µM,0.883
same,viability,[13]; 3 µM,0.862
same,viability,[13]; 15 µM,0.691
same,viability,[14]; 0.024 µM,0.828
same,viability,[14]; 0.12 µM,0.844
same,viability,[14]; 0.6 µM,0.898
same,viability,[14]; 3 µM,0.893
same,viability,[14]; 15 µM,0.815
same,viability,[15]; 0.024 µM,0.94
same,viability,[15]; 0.12 µM,0.986
same,viability,[15]; 0.6 µM,1.01
same,viability,[15]; 3 µM,0.884
same,viability,[15]; 15 µM,0.722
same,viability,[16]; 0.024 µM,0.845
same,viability,[16]; 0.12 µM,0.889
same,viability,[16]; 0.6 µM,0.93
same,viability,[16]; 3 µM,0.933
same,viability,[16]; 15 µM,0.895
same,viability,[17]; 0.024 µM,0.928
same,viability,[17]; 0.12 µM,0.976
same,viability,[17]; 0.6 µM,0.955
same,viability,[17]; 3 µM,0.925
same,viability,[17]; 15 µM,0.876
same,viability,[18]; 0.024 µM,0.685
same,viability,[18]; 0.12 µM,0.799
same,viability,[18]; 0.6 µM,0.786
same,viability,[18]; 3 µM,0.771
same,viability,[18]; 15 µM,0.7
same,viability,[19]; 0.024 µM,0.977
same,viability,[19]; 0.12 µM,0.987
same,viability,[19]; 0.6 µM,1.02
same,viability,[19]; 3 µM,0.93
same,viability,[19]; 15 µM,0.958
same,viability,[20]; 0.024 µM,0.872
same,viability,[20]; 0.12 µM,0.936
same,viability,[20]; 0.6 µM,0.893
same,viability,[20]; 3 µM,0.933
same,viability,[20]; 15 µM,0.886
